Several values for one entry are separate records, joined by “and”; a condition that tells them apart may be missing. Identical values can stand only once. Entries after “also recorded” stand apart in the source; their conditions may differ.
Legend:
[1] = tested on: dogs with suspected chronic pancreatitis; assay: Adverse drug reactions, complete blood count and serum biochemistry profile, clinical trial; type: in vivo, dog
Description: (§1) Treatment effects on overall health status, quality of life, and clinical signs were also evaluated with serum biochemistry profiles, complete blood counts, and owner questionnaires.
(§2) Twelve enrolled dogs received camostat capsules at a dosage of 4 mg/kg q 8 hrs, for a total dose of 12 mg/kg q 24 hrs. […] Individual patients were medicated for between 21 to 31 days.
Patients were treated at home and their overall health was monitored by their owners and the referring physician.
(§3) Blood samples were collected before beginning the treatment and after completion of the treatment period. Complete blood count (red blood cell count, hematocrit, mean corpuscular volume, mean corpuscular hemoglobin, mean corpuscular hemoglobin concentration, differential and absolute white blood cell count, red blood cell count, hemoglobin, platelet estimate, red blood cell morphology, white blood cell morphology, and hemoparasites) was evaluated at the Texas Veterinary Medical Diagnostic Laboratory (TVMDL). A serum chemistry profile with electrolytes (glucose, blood urea nitrogen, creatinine, calcium, phosphorus, albumin, total protein, total bilirubin, alkaline phosphatase, alanine amino transferase, aspartate amino transferase, γ-glutamyl transferase, cholesterol, triglycerides, globuline, sodium, potassium, and chloride) was performed on a SIRRUS analyzer (Stanbio, Boerne, Tex., USA). Serum concentrations of cPL (RI: 0-200 μg/L; Spec cPL® IDEXX Laboratories, Westbrook, Me., USA), cTLI (RI: 5.7-45.2 μg/L; Canine TLI DOUBLE ANTIBODY®, Siemens Healthcare Diagnostics, Los Angeles, Calif., USA), cobalamin (RI: 251-908 ng/L), and folate (RI: 7.7-24.4 μg/L; Immulite 2000®, Siemens Healthcare Diagnostics Inc., Deerfield, Ill., USA), canine specific C-reactive protein (RI: 0-7.6 mg/L, Tridelta Development Limited, Maynooth, CO. Kildare, Ireland), S100A12 (RI: 56-331 μg/L, Gastrointestinal Laboratory in-house radioimmunoassay), and TGF-β1 (RI: 38-72 ng/mL; Quantikine® ELISA, R&D Systems, Minneapolis, […]., USA) were performed at the Gastrointestinal Lab at Texas A&M University.
(§4) Pre-treatment and post-treatment results for all diagnostic tests were statistically analyzed using Prism 6 (GraphPad Software, La Jolla, Calif., USA). The D'Agostino-Pearson omnibus test was used to evaluate all datasets for Gaussian distribution. Groups were compared using a paired t-test for normally-distributed data sets and a Wilcoxon matched-pairs test when Gaussian distribution could not be assumed. Mean values and standard deviation are reported for data sets with Gaussian distribution. Median and minimum/maximum values are reported for data sets where Gaussian distribution could not be assumed. The significance threshold was set at p=0.05.

[2] = tested on: dogs with suspected chronic pancreatitis; assay: Serum S100A12 before and after treatment, clinical trial; type: in vivo, dog; conditions: for Change in serum S100A12, pre- vs post-treatment: methanesulfonate
Description: as §1
(§5) Dogs were identified by screening current submissions to the Gastrointestinal Laboratory at Texas A&M indicative of pancreatitis (canine pancreas-specific lipase≧400 μg/L) using an immunoassay for measurement of canine pancreas-specific lipase in canine serum known as the spec CPL® Test (IDEXX, Laboratories). A number of potential study participants were directly referred to the investigator by veterinarians, based on positive pet-side SNAP cPL® Test (IDEXX Laboratories, Westbrook, Me., USA) results and concomitant clinical signs. After ascertaining individual suitability of a patient with the referring veterinarian, serum canine pancreas-specific lipase concentration, serum biochemistry profile, and complete blood count were evaluated or re-evaluated 12±4 days after collection of the initial sample submission to the Gastrointestinal Laboratory. Based on the assumption that consecutive canine pancreas-specific lipase elevations indicate chronic pancreatitis, enrollment was offered for patients with canine pancreas-specific lipase concentrations≧400 μg/L, serum triglyceride concentrations below 500 mg/dL, and no indication of hepatic, renal, or other organ disease. […] Owner consent was required prior to phlebotomy and for enrollment into the trial.
as §2
Blood samples were collected before beginning the treatment and after completion of the treatment period. Complete blood count (red blood cell count, hematocrit, mean corpuscular volume, mean corpuscular hemoglobin, mean corpuscular hemoglobin concentration, differential and absolute white blood cell count, red blood cell count, hemoglobin, platelet estimate, red blood cell morphology, white blood cell morphology, and hemoparasites) was evaluated at the Texas Veterinary Medical Diagnostic Laboratory (TVMDL). A serum chemistry profile with electrolytes (glucose, blood urea nitrogen, creatinine, calcium, phosphorus, albumin, total protein, total bilirubin, alkaline phosphatase, alanine amino transferase, aspartate amino transferase, γ-glutamyl transferase, cholesterol, triglycerides, globuline, sodium, potassium, and chloride) was performed on a SIRRUS analyzer (Stanbio, Boerne, Tex., USA). […]
Pre-treatment and post-treatment results for all diagnostic tests were statistically analyzed using Prism 6 (GraphPad Software, La Jolla, Calif., USA). […]

[3] = tested on: dogs with suspected chronic pancreatitis; assay: Serum canine pancreas-specific lipase (cPL/cPLI, Spec cPL) before and after treatment, clinical trial; type: in vivo, dog; conditions: for Change in serum cPL/cPLI, pre- vs post-treatment (Wilcoxon matched-pair): methanesulfonate
Description: as §5
(§6) […] […] Individual patients were medicated for between 21 to 31 days.
as §3
Additionally, samples that exceeded the working range of the Spec cPL assay were diluted and re-analyzed.
as §4

[4] = tested on: dogs with suspected chronic pancreatitis; assay: Serum C-reactive protein before and after treatment, clinical trial; type: in vivo, dog; conditions: 8 mg/kg q 8 hrs, n=17
[5] = target: plasmin (Homo sapiens, UniProt P00747); conditions: cited from earlier work
[6] = tested on: dogs with suspected chronic pancreatitis; assay: Serum cTLI before and after treatment, clinical trial; type: in vivo, dog
Description: as §1, §5, §6, §3, §4

Sequence of plasmin (P00747 581-810 limits assumed, species assumed): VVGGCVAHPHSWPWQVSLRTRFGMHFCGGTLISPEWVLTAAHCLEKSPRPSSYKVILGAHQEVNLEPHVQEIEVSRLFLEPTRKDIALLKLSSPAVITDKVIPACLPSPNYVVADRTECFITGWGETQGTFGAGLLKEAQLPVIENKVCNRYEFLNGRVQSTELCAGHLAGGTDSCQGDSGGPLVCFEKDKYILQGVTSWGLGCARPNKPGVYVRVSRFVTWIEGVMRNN
Sequence of plasmin (P00747 97-580 partner limits assumed, species assumed): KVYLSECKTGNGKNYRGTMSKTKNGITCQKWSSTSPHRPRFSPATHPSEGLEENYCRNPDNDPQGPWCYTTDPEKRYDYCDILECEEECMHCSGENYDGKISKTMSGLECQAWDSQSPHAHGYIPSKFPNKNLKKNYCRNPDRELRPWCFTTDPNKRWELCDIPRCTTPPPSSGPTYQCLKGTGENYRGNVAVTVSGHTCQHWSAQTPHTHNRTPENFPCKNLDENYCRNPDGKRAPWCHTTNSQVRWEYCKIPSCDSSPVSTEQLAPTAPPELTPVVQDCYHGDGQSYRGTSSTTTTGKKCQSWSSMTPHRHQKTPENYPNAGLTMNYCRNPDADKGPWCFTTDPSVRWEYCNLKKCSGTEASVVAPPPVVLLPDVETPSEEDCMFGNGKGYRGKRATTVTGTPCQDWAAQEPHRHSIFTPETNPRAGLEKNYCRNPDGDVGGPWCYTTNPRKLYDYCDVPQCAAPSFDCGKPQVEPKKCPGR

CN(C)C(=O)COC(=O)Cc1ccc(OC(=O)c2ccc(NC(=N)N)cc2)cc1 [Camostat Mesilate, N,N-dimethylcarbamoylmethyl-4-(4-guanidinobenzoyloxy)phenylacetate methanesulfonate]
Adverse drug reactions ([1]; 4 mg/kg q 8 hrs, 12 dogs, reported in two dogs): increased flatulence | Adverse drug reactions ([1]; 8 mg/kg q 8 hrs, 17 dogs, each sign in one dog, methanesulfonate): pruritus in one front paw; also recorded: increased flatulence | Complete blood count and serum biochemistry parameters, pre- vs post-treatment ([1]; all treated dogs): no statistically significant differences | Increase in serum aspartate amino transferase activity after treatment ([1]; another individual dog): 6 fold | Side effects overall ([1]; both dosages (12 or 24 mg/kg q d), 26±5 days): very mild side effects | Other clinical signs suggestive of an adverse drug reaction ([1]; either group (4 or 8 mg/kg q 8 hrs)): No other clinical signs suggestive of an adverse drug reaction were observed | Increase in serum γ-glutamyl transferase activity after treatment ([1]; one individual dog): 35 fold | Increase in aspartate amino transferase activity after treatment ([1]; one individual dog (same dog as the γ-glutamyl transferase increase)): 6 fold | Change in serum S100A12, pre- vs post-treatment ([2]; 4 mg/kg q 8 hrs, n=11): decreased significantly | Serum S100A12 concentration post-treatment (median) ([2]; 4 mg/kg q 8 hrs, n=11, pre-treatment median 160, post range 43-449, p=0.0010): 88 µg/L | Change in serum S100A12, pre- vs post-treatment ([2]; all treated dogs combined, n=28): no significant difference; also recorded: did not change significantly; also recorded: did not lead to any significant changes | Serum S100A12 concentration post-treatment (median) ([2]; all treated dogs combined, n=28, pre-treatment median 154, post range 43-746, p=0.1438): 133 µg/L | Serum cPL/cPLI concentration post-treatment (median) ([3]; 4 mg/kg q 8 hrs oral capsules, 21-31 days, n=12, pre-treatment median 501, post range 125-2,836, p=0.9697): 453 µg/L | Change in serum cPL/cPLI, pre- vs post-treatment (Wilcoxon matched-pair) ([3]; 4 mg/kg q 8 hrs, n=12): no significant difference; also recorded: did not change significantly | Change in serum cPL/cPLI, pre- vs post-treatment (Wilcoxon matched-pair) ([3]; 8 mg/kg q 8 hrs (24 mg/kg q d), n=17): significant difference; also recorded: statistically significant change; also recorded: statistically significant decrease | Serum cPL/cPLI concentration post-treatment (median) ([3]; 8 mg/kg q 8 hrs oral capsules, 21-31 days, n=17, pre-treatment median 882, post range 193-2,580, p=0.0232): 633 µg/L | Serum cPL/cPLI concentration post-treatment (median) ([3]; all treated dogs combined, n=29, pre-treatment median 690, post range 125-2,836, p=0.0903 or 0.0562): 514 µg/L | Change in serum cPL/cPLI, pre- vs post-treatment (Wilcoxon matched-pair) ([3]; all treated dogs combined, n=29, trend towards a decrease): no statistically significant difference | Change in serum C-reactive protein, pre- vs post-treatment ([4]; methanesulfonate): no significant difference; also recorded: did not change significantly | Serum C-reactive protein concentration post-treatment (median) ([4]; pre-treatment median 0.1, post range 0.1-6.8, p=0.25): 0.1 mg/L | Anti-plasmin activity [5]: anti-plasmin activity | Change in serum cTLI, pre- vs post-treatment ([6]; 4 mg/kg q 8 hrs, n=11, methanesulfonate): no significant difference; also recorded: did not change significantly | Serum cTLI concentration post-treatment (median) ([6]; 4 mg/kg q 8 hrs, n=11, pre-treatment median 22, post range 17-55, p=0.8311): 28 µg/L | Change in serum cTLI, pre- vs post-treatment ([6]; 8 mg/kg q 8 hrs, n=17, methanesulfonate): no significant difference; also recorded: No significant changes | Serum cTLI concentration post-treatment (median) ([6]; 8 mg/kg q 8 hrs, n=17, pre-treatment median 35, p=0.1594, methanesulfonate): 22 µg/L and 24 µg/L | Change in serum cTLI, pre- vs post-treatment ([6]; all treated dogs combined, n=28, methanesulfonate): no significant difference; also recorded: No significant changes | Serum cTLI concentration post-treatment (median) ([6]; all treated dogs combined, n=28, pre-treatment median 32, post range 6-81, p=0.2098): 25 µg/L
